Measured values reported in patent US7410975B2, “Small molecule toll-like receptor (TLR) antagonists” (Coley Pharmaceutical Group, Inc., priority 2003, dated 2008).
Where a name gives a salt, the structure may show the parent alone.

Target: T1, human TLR8 (hTLR8) (Homo sapiens, UniProt Q9NR97)
T1 construct: expressed in transfected cells
T1 sequence (Q9NR97 27-1041): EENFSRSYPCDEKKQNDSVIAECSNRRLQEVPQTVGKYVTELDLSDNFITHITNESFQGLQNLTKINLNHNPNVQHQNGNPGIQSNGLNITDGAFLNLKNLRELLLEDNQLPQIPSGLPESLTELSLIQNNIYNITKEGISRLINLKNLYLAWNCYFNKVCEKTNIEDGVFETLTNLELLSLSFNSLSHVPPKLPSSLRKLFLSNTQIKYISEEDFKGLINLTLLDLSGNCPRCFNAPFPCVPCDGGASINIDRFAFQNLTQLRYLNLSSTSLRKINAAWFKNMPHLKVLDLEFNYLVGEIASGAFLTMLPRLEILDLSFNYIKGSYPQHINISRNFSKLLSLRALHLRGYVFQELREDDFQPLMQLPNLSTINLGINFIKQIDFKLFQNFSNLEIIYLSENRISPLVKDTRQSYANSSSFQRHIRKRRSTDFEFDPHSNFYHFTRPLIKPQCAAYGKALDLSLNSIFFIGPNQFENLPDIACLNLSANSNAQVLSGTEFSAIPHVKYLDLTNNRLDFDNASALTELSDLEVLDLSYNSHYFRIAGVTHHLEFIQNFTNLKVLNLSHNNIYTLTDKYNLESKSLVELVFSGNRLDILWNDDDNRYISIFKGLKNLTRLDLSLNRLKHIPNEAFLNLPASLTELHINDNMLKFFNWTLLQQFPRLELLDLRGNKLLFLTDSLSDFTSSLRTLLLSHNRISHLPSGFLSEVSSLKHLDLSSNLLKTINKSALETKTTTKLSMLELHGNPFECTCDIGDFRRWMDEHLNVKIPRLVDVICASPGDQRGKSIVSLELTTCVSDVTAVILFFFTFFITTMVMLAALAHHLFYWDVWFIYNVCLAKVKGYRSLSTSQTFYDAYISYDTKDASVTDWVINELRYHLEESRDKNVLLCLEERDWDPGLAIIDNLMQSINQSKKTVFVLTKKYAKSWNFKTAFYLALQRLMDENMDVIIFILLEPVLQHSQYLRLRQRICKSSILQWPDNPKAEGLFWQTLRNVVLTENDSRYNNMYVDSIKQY
Assay: Antagonist screen, hTLR8-NFκB-293 cells, NF-κB-luciferase reporter, with EC50 of R848
Assay type: cell-based
Conditions: compound at 0.5, 5, 50 μg/ml; EC50 concentration of R848; 16 h; NF-κB-luciferase
Protocol: The method is described in greater detail as follows. The cells for each individual cell clone (hTLR3-NFκB-293, hTLR7-NFκB-293, hTLR8-NFκB-293 and hTLR9-NFκB-293) were counted and seeded one day before the stimulation at 1.5×10^4 cells per well in 96-well cell culture plates. To become adherent the cells were incubated after seeding overnight at 37° C. in 5% CO2 humidified air.
The screen for each compound was performed at the same time for all of the receptors TLR3, TLR7, TLR8 and TLR9. Up to fifteen test compounds, each assayed in duplicate at each of three different final concentrations (0.5 μg/ml, 5 μg/ml, and 50 μg/ml), were used for 16 h cell stimulation on a single multiwell culture plate. A 4× final concentration master plate was created to prepare the different test compounds before they were added to the cells.
Controls were added as duplicates individually for each cell clone on the cell culture plate. Positive controls were used as follows (final concentrations): 50 μg/ml poly(I:C) for hTLR3-NFκB-293; 8 μM resiquimod (R848) for hTLR7-NFκB-293; 30 μM R848 for hTLR8-NFκB-293; and 2.5 μM CpG-ODN 2006 for hTLR9-NFκB-293. Media alone was used as negative control. After addition of controls and small molecules, the cell clones were additionally stimulated with the EC50 concentration of the appropriate receptor-specific ligand.
The mean value of wells H2 and H5 (each with cells and EC50 concentration of the appropriate receptor-specific ligand) divided by the mean of wells H3 and H6 (each with cells alone) yielded the baseline response (i.e., fold induction of luciferase activity) to EC50 concentration of the appropriate receptor-specific ligand.
After 16 h stimulation the supernatant was removed and the cells treated with lysis buffer and stored at −80° C. before measuring.
For each screen result a graphical documentation was performed.
The baseline result (measured with addition of the EC50 concentration of the receptor-specific ligand) for each cell culture plate was measured as described above. Antagonistic effects were measured by down regulation compared to the baseline. Antagonists were scored as follows: • 13: compounds for which there was clear down regulation at 0.5 μg/ml, 5 μg/ml, and 50 μg/ml; • 12: compounds for which there was clear down regulation at 5 μg/ml and 50 μg/ml; • 11: compounds for which there was clear down regulation only at 50 μg/ml; • —: compounds for which there was no clear down regulation even at 50 μg/ml. Agonists
Results were expressed as fold induction over baseline luciferase activity measured in the absence of R848. […] Additional screening was performed in like manner using additional small molecules selected from another library or specifically prepared for this purpose. Scoring is reported as above but as applied to TLR8.

COC(=O)C1=CO[C@@H](C)[C@@H]2CN3CCc4c([nH]c5ccccc45)[C@@H]3C[C@H]12 [compound 593, Tetrahydroalstonine]
hTLR8 (inhibitory effect, antagonist score): — (compounds for which there was no clear down regulation even at 50 μg/ml)

CC[C@]12CCCN3CCc4c(n(c5ccccc45)C(=O)C1)[C@@H]32 [compound 607, Eburnamonine]
hTLR8 (inhibitory effect, antagonist score): — (compounds for which there was no clear down regulation even at 50 μg/ml)

Cc1nccc2c1[nH]c1cc(O)ccc12.Cl [compound 612, Harmol hydrochloride monohydrate]
hTLR8 (inhibitory effect, antagonist score): 11 (compounds for which there was clear down regulation only at 50 μg/ml)

COc1ccc2c(c1)[nH]c1c(C)nccc12.Cl [compound 613, harmine hydrochloride]
hTLR8 (inhibitory effect, antagonist score): 13 (compounds for which there was clear down regulation at 0.5 μg/ml, 5 μg/ml, and 50 μg/ml)

Cc1c2ccncc2c(C)c2c1[nH]c1ccccc12 [compound 614, Ellipticine]
hTLR8 (inhibitory effect, antagonist score): 11 (compounds for which there was clear down regulation only at 50 μg/ml)

Cc1nccc2c1[nH]c1ccccc12 [compound 620, Harmane hydrochloride]
hTLR8 (inhibitory effect, antagonist score): — (compounds for which there was no clear down regulation even at 50 μg/ml)

COc1ccc2[nH]c3c(c2c1)CCN=C3C [compound 621, Methoxy-6-harmalan]
hTLR8 (inhibitory effect, antagonist score): — (compounds for which there was no clear down regulation even at 50 μg/ml)

CC[C@]12CCCN3CCc4c(n(c5ccccc45)[C@](O)(C(=O)OC)C1)[C@@H]32 [compound 636, Epivincamine]
hTLR8 (inhibitory effect, antagonist score): — (compounds for which there was no clear down regulation even at 50 μg/ml)

Cl.Cl.c1ccc2c3c([nH]c2c1)C1C2CCC(C4CCCNC42)N1CC3 (stereo not shown) [compound 685, Nitrarine dihydorchloride]
hTLR8 (inhibitory effect, antagonist score): — (compounds for which there was no clear down regulation even at 50 μg/ml)

CN(C)CCCN1c2ccccc2Sc2ccccc21.Cl [compound 693, Promazinehydrochloride]
hTLR8 (inhibitory effect, antagonist score): — (compounds for which there was no clear down regulation even at 50 μg/ml)

CN1CCC(OC(c2ccccc2)c2ccccc2)CC1.Cl [compound 707, Diphenylpyralinehydrochloride]
hTLR8 (inhibitory effect, antagonist score): — (compounds for which there was no clear down regulation even at 50 μg/ml)

CCCC(C(=O)OCCN(CC)CC)(c1ccccc1)c1ccccc1.Cl [compound 778, Proadifen hydrochloride]
hTLR8 (inhibitory effect, antagonist score): 11 (compounds for which there was clear down regulation only at 50 μg/ml)

Cl.Clc1ccc(C(OCCN2CCCCC2)c2ccccc2)cc1 (stereo not shown) [compound 793, Cloperastinehydrochloride]
hTLR8 (inhibitory effect, antagonist score): — (compounds for which there was no clear down regulation even at 50 μg/ml)

COc1ccc2c(c1)N(CC(C)CN(C)C)c1ccccc1S2.O=C(O)/C=C\C(=O)O (stereo not shown) [compound 797, Methotrimeprazinemaleat salt]
hTLR8 (inhibitory effect, antagonist score): 11 (compounds for which there was clear down regulation only at 50 μg/ml)

CS(=O)(=O)O.OC(CCN1CCCCC1)(c1ccccc1)c1ccccc1 [compound 799, Pridinolmethanesulfonate salt]
hTLR8 (inhibitory effect, antagonist score): — (compounds for which there was no clear down regulation even at 50 μg/ml)

C[N+]12CCC(CC1)C(OC(=O)C(O)(c1ccccc1)c1ccccc1)C2.[Br-] (stereo not shown) [compound 822, Clidinium bromide]
hTLR8 (inhibitory effect, antagonist score): — (compounds for which there was no clear down regulation even at 50 μg/ml)

Clc1ccc(C(c2ccccc2Cl)C(Cl)Cl)cc1 (stereo not shown) [compound 833, Mitotane]
hTLR8 (inhibitory effect, antagonist score): 11 (compounds for which there was clear down regulation only at 50 μg/ml)

CCN(CC)C(C)CN1c2ccccc2Sc2ccccc21.Cl (stereo not shown) [compound 840, Ethopropazinehydrochloride]
hTLR8 (inhibitory effect, antagonist score): 11 (compounds for which there was clear down regulation only at 50 μg/ml)

CC(CN(C)C)CN1c2ccccc2Sc2ccccc21.CC(CN(C)C)CN1c2ccccc2Sc2ccccc21.O=C(O)C(O)C(O)C(=O)O (stereo not shown) [compound 842, Trimeprazine tartrate]
hTLR8 (inhibitory effect, antagonist score): 11 (compounds for which there was clear down regulation only at 50 μg/ml)

COC(=O)[C@H]1[C@H]2C[C@@H]3c4[nH]c5cc(OC)ccc5c4CCN3C[C@H]2C[C@@H](OC(=O)c2cc(OC)c(OC)c(OC)c2)[C@@H]1OC [compound 875, Reserpine]
hTLR8 (inhibitory effect, antagonist score): — (compounds for which there was no clear down regulation even at 50 μg/ml)

OCc1cc2c(cn1)[nH]c1ccccc12 [compound 878, 3-hydroxymethyl-beta-carboline]
hTLR8 (inhibitory effect, antagonist score): — (compounds for which there was no clear down regulation even at 50 μg/ml)

O=C(O)c1cc(C(c2ccc(O)c(C(=O)O)c2)C(Cl)(Cl)Cl)ccc1O [compound 884]
hTLR8 (inhibitory effect, antagonist score): 11 (compounds for which there was clear down regulation only at 50 μg/ml)

CN(CCO)C(=O)c1cccc2c1-c1ccccc1C2=O [compound 890]
hTLR8 (inhibitory effect, antagonist score): 11 (compounds for which there was clear down regulation only at 50 μg/ml)

COC(=O)c1cccc2c1-c1ccccc1/C2=N/O [compound 904]
hTLR8 (inhibitory effect, antagonist score): 13 (compounds for which there was clear down regulation at 0.5 μg/ml, 5 μg/ml, and 50 μg/ml)

O=C(O)c1ccccc1NC1CC=CC2=C1C(=O)c1ccccc1C2=O (stereo not shown) [compound 917]
hTLR8 (inhibitory effect, antagonist score): — (compounds for which there was no clear down regulation even at 50 μg/ml)

O=C(O)c1cccc2c1/C(=N/O)c1ccccc1-2 [compound 918]
hTLR8 (inhibitory effect, antagonist score): — (compounds for which there was no clear down regulation even at 50 μg/ml)

CCCCOC(=O)c1cc([N+](=O)[O-])cc2c1-c1cc(CO)c([NH+]([O-])O)cc1C2=C(C#N)C#N (stereo not shown) [compound 939]
hTLR8 (inhibitory effect, antagonist score): — (compounds for which there was no clear down regulation even at 50 μg/ml)

O=C(O)c1cccc2c1-c1ccccc1/C2=N/Nc1ccc([N+](=O)[O-])cc1[N+](=O)[O-] [compound 944]
hTLR8 (inhibitory effect, antagonist score): — (compounds for which there was no clear down regulation even at 50 μg/ml)

C=CCc1ccccc1OC1(c2ccccc2)OC(=O)c2ccccc21 (stereo not shown) [compound 957]
hTLR8 (inhibitory effect, antagonist score): — (compounds for which there was no clear down regulation even at 50 μg/ml)

COC(=O)c1ccc(C2CC(=O)Nc3c2ccc2ccccc32)cc1 (stereo not shown) [compound 965]
hTLR8 (inhibitory effect, antagonist score): — (compounds for which there was no clear down regulation even at 50 μg/ml)

O=C(O)c1ccc(C2(c3ccc(C(=O)O)cc3)OC(=O)c3ccccc32)cc1 [compound 970]
hTLR8 (inhibitory effect, antagonist score): — (compounds for which there was no clear down regulation even at 50 μg/ml)
